Source: ChEMBL document CHEMBL1909046, “DrugMatrix in vitro pharmacology data”

Columns and labels:
B2 bradykinin receptor = biological target: T1, B2 bradykinin receptor (Homo sapiens, UniProt P30411); assay type: cell membranes, Membrane; settings: chem-1
T1 sequence (P30411 whole entry): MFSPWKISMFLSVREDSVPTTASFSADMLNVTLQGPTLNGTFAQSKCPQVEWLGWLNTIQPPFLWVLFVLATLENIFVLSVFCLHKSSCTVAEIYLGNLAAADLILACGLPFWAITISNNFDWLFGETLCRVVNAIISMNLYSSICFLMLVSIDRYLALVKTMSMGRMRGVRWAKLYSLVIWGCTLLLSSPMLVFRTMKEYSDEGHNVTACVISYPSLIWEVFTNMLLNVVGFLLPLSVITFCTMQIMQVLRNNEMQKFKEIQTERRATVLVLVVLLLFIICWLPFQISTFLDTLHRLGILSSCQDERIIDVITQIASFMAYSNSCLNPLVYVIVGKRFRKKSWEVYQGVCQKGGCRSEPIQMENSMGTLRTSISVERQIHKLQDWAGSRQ

Glycine receptor = Glycine receptor (Rattus norvegicus, UniProt P22771+P24524+P07727+P20781); assay type: cell membranes, Wistar, Spinal cord, Membrane
Androgen receptor = biological target: T2, Androgen receptor (Rattus norvegicus, UniProt P15207)
T2 sequence (P15207 whole entry): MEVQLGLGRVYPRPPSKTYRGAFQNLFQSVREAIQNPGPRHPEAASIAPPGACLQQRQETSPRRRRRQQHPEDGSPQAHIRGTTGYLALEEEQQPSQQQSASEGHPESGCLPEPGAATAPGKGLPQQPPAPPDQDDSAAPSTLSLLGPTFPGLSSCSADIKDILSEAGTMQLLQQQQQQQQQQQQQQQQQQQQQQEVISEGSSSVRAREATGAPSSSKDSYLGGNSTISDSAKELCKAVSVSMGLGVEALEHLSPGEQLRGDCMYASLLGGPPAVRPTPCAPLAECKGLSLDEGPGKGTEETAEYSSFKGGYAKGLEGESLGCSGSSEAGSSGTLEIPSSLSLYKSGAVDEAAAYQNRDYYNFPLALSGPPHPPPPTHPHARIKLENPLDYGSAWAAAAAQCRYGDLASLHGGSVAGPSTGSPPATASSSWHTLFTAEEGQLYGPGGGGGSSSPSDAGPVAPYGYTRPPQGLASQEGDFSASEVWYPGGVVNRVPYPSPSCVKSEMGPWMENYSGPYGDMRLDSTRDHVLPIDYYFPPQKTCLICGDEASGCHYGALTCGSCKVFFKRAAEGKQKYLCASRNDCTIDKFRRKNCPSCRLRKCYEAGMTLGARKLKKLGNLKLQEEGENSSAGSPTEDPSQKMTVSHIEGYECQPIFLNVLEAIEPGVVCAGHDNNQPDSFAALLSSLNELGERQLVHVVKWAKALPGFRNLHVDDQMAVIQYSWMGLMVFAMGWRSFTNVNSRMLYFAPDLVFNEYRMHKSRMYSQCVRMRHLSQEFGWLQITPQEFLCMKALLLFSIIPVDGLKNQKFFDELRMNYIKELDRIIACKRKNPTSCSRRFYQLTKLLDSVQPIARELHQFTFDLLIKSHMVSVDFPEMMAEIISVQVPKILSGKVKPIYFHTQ

[1] = biological target: T3, Cysteinyl leukotriene receptor 1 (Homo sapiens, UniProt Q9Y271); assay type: cell membranes, CHO-K1, Membrane; settings: cho-k1
T3 sequence (Q9Y271 whole entry): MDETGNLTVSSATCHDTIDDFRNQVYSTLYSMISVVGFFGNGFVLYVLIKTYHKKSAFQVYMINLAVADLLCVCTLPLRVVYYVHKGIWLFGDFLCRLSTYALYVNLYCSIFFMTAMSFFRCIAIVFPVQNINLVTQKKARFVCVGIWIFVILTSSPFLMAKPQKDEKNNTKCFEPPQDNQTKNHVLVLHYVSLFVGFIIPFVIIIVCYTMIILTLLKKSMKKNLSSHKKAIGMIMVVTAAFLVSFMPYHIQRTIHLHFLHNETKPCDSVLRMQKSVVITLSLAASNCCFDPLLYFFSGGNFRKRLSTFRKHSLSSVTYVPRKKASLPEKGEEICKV

Cytochrome P450 2C9 = Cytochrome P450 2C9 (Homo sapiens, UniProt P11712); settings: bti-tn-5b1-4
Cytochrome P450 2C9, sequence (P11712 whole entry): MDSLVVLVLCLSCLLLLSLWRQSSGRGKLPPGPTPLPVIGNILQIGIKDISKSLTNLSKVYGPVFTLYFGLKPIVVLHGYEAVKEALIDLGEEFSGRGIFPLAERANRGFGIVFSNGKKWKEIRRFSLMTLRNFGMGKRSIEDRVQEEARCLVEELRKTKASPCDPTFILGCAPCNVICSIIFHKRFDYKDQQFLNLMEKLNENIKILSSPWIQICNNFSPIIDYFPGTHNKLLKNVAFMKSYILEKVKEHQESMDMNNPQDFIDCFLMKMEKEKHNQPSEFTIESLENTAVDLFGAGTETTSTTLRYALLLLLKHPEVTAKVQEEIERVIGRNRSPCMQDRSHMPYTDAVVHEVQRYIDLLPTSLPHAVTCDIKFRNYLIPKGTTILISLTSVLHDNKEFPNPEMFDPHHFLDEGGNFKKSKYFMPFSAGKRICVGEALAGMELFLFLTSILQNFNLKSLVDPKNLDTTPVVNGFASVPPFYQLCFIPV
Further: in other assays of this panel Not Active means under 50% inhibition at 10 µM.

CHROMIC CHLORIDE
Not Active: IC50 (B2 bradykinin receptor) | Ki (B2 bradykinin receptor) | IC50 (Glycine receptor) | Ki (Glycine receptor) | IC50 (Androgen receptor) | Ki (Androgen receptor) | IC50 [1] | Ki [1] | IC50 (Cytochrome P450 2C9) | Ki (Cytochrome P450 2C9)

O=C(O)CNCP(=O)(O)O [GLYPHOSATE]
Not Active: IC50 (B2 bradykinin receptor) | IC50 (Glycine receptor) | IC50 (Androgen receptor) | IC50 [1]

CC(C)(C#N)c1cc(Cn2cncn2)cc(C(C)(C)C#N)c1 [ANASTROZOLE]
Not Active: IC50 (B2 bradykinin receptor) | IC50 (Glycine receptor) | IC50 [1] | IC50 (Cytochrome P450 2C9) | Ki (Cytochrome P450 2C9)

Nc1ccc(Cc2ccc(N)cc2)cc1
Not Active: IC50 (B2 bradykinin receptor) | IC50 (Glycine receptor) | IC50 [1] | IC50 (Cytochrome P450 2C9) | Ki (Cytochrome P450 2C9)

c1ccc2sc(SSc3nc4ccccc4s3)nc2c1 [BENZOTHIAZYL DISULFIDE]
Not Active: IC50 (B2 bradykinin receptor) | IC50 (Glycine receptor) | IC50 [1] | IC50 (Cytochrome P450 2C9) | Ki (Cytochrome P450 2C9)

O=C1c2ccccc2C(=O)C1c1ccccc1 [PHENINDIONE]
Not Active: IC50 (B2 bradykinin receptor) | IC50 (Glycine receptor) | IC50 [1] | IC50 (Cytochrome P450 2C9) | Ki (Cytochrome P450 2C9)

OC[C@H]1O[C@@H]2O[C@H]3[C@H](O)[C@@H](O)[C@@H](O[C@H]4[C@H](O)[C@@H](O)[C@@H](O[C@H]5[C@H](O)[C@@H](O)[C@@H](O[C@H]6[C@H](O)[C@@H](O)[C@@H](O[C@H]7[C@H](O)[C@@H](O)[C@@H](O[C@H]1[C@H](O)[C@H]2O)O[C@@H]7CO)O[C@@H]6CO)O[C@@H]5CO)O[C@@H]4CO)O[C@@H]3CO [ALFADEX]
Not Active: IC50 (B2 bradykinin receptor) | IC50 (Glycine receptor) | IC50 [1] | IC50 (Cytochrome P450 2C9) | Ki (Cytochrome P450 2C9)

O=C1CN(/N=C/c2ccc([N+](=O)[O-])o2)C(=O)N1 [NITROFURANTOIN]
Not Active: IC50 (B2 bradykinin receptor) | IC50 (Glycine receptor) | IC50 [1] | IC50 (Cytochrome P450 2C9) | Ki (Cytochrome P450 2C9)

O=C(NCCN1CCOCC1)c1ccc(Cl)cc1 [MOCLOBEMIDE]
Not Active: IC50 (B2 bradykinin receptor) | IC50 (Glycine receptor) | IC50 [1] | IC50 (Cytochrome P450 2C9) | Ki (Cytochrome P450 2C9)

CC12CCC(CC1)C(C)(C)O2 [EUCALYPTOL]
Not Active: IC50 (B2 bradykinin receptor) | IC50 (Glycine receptor) | IC50 [1] | IC50 (Cytochrome P450 2C9) | Ki (Cytochrome P450 2C9)

CCN1C[C@]2(COC)[C@H](O)C[C@H](OC)[C@@]34[C@@H]5C[C@@]6(O)[C@H](OC(=O)c7ccccc7)[C@@H]5[C@@](OC(C)=O)([C@@H]([C@H](OC)[C@H]23)[C@@H]14)[C@@H](O)[C@@H]6OC [ACONITINE]
Not Active: IC50 (B2 bradykinin receptor) | IC50 (Glycine receptor) | IC50 [1] | IC50 (Cytochrome P450 2C9) | Ki (Cytochrome P450 2C9)

NC(=O)NC(=O)Cc1ccccc1 [PHENACEMIDE]
Not Active: IC50 (B2 bradykinin receptor) | IC50 (Glycine receptor) | IC50 [1] | IC50 (Cytochrome P450 2C9) | Ki (Cytochrome P450 2C9)

CC(CN1c2ccccc2Sc2ccccc21)N(C)C (centres undefined) [PROMETHAZINE]
Not Active: IC50 (B2 bradykinin receptor) | IC50 (Glycine receptor) | IC50 [1] | IC50 (Cytochrome P450 2C9) | Ki (Cytochrome P450 2C9)

NC(N)=Nc1nc(CSCCC(N)=NS(N)(=O)=O)cs1 [FAMOTIDINE]
Not Active: IC50 (B2 bradykinin receptor) | IC50 (Glycine receptor) | IC50 [1] | IC50 (Cytochrome P450 2C9) | Ki (Cytochrome P450 2C9)

ClC1=C(Cl)[C@]2(Cl)[C@@H]3[C@@H]4C[C@@H]([C@H]5O[C@@H]45)[C@@H]3[C@@]1(Cl)C2(Cl)Cl [DIELDRIN]
Not Active: IC50 (B2 bradykinin receptor) | IC50 (Glycine receptor) | IC50 [1] | IC50 (Cytochrome P450 2C9) | Ki (Cytochrome P450 2C9)

COC(=O)Nc1nc2ccc(Sc3ccccc3)cc2[nH]1 [FENBENDAZOLE]
Not Active: IC50 (B2 bradykinin receptor) | IC50 (Glycine receptor) | IC50 [1] | IC50 (Cytochrome P450 2C9) | Ki (Cytochrome P450 2C9)

Cc1ccnc2c1NC(=O)c1cccnc1N2C1CC1 [NEVIRAPINE]
Not Active: IC50 (B2 bradykinin receptor) | IC50 (Glycine receptor) | IC50 [1] | IC50 (Cytochrome P450 2C9) | Ki (Cytochrome P450 2C9)

OC[C@H]1O[C@@H]2O[C@H]3[C@H](O)[C@@H](O)[C@@H](O[C@H]4[C@H](O)[C@@H](O)[C@@H](O[C@H]5[C@H](O)[C@@H](O)[C@@H](O[C@H]6[C@H](O)[C@@H](O)[C@@H](O[C@H]7[C@H](O)[C@@H](O)[C@@H](O[C@H]8[C@H](O)[C@@H](O)[C@@H](O[C@H]1[C@H](O)[C@H]2O)O[C@@H]8CO)O[C@@H]7CO)O[C@@H]6CO)O[C@@H]5CO)O[C@@H]4CO)O[C@@H]3CO [BETADEX]
Not Active: IC50 (B2 bradykinin receptor) | IC50 (Glycine receptor) | IC50 [1] | IC50 (Cytochrome P450 2C9) | Ki (Cytochrome P450 2C9)

O=C(O)CO [GLYCOLIC ACID]
Not Active: IC50 (B2 bradykinin receptor) | IC50 (Glycine receptor) | IC50 [1] | IC50 (Cytochrome P450 2C9) | Ki (Cytochrome P450 2C9)

COc1cc(NC(C)CCCN)c2ncccc2c1 (centres undefined) [PRIMAQUINE]
Not Active: IC50 (B2 bradykinin receptor) | IC50 (Glycine receptor) | IC50 [1] | IC50 (Cytochrome P450 2C9) | Ki (Cytochrome P450 2C9)

CC12CCC(CC1=O)C2(C)C (centres undefined) [CAMPHOR]
Not Active: IC50 (B2 bradykinin receptor) | IC50 (Glycine receptor) | IC50 [1] | IC50 (Cytochrome P450 2C9) | Ki (Cytochrome P450 2C9)

O=C(O)c1ccccc1 [BENZOIC ACID]
Not Active: IC50 (B2 bradykinin receptor) | IC50 (Glycine receptor) | IC50 [1] | IC50 (Cytochrome P450 2C9) | Ki (Cytochrome P450 2C9)

Oc1ncnc2[nH]ncc12 [ALLOPURINOL]
Not Active: IC50 (B2 bradykinin receptor) | IC50 (Glycine receptor) | IC50 [1] | IC50 (Cytochrome P450 2C9) | Ki (Cytochrome P450 2C9)

NC(=O)CN1CCCC1=O
Not Active: IC50 (B2 bradykinin receptor) | IC50 (Glycine receptor) | IC50 [1] | IC50 (Cytochrome P450 2C9) | Ki (Cytochrome P450 2C9)

C=CCO [ALLYL ALCOHOL]
Not Active: IC50 (B2 bradykinin receptor) | IC50 (Glycine receptor) | IC50 [1] | IC50 (Cytochrome P450 2C9) | Ki (Cytochrome P450 2C9)

CCN1CCN(C(=O)N[C@@H](C(=O)N[C@@H]2C(=O)N3[C@@H]2SC(C)(C)[C@@H]3C(=O)O)c2ccccc2)C(=O)C1=O [PIPERACILLIN]
Not Active: IC50 (B2 bradykinin receptor) | IC50 (Glycine receptor) | IC50 [1] | IC50 (Cytochrome P450 2C9) | Ki (Cytochrome P450 2C9)

Clc1cc(Cl)c(OCC#CI)cc1Cl [HALOPROGIN]
Not Active: IC50 (B2 bradykinin receptor) | IC50 (Glycine receptor) | IC50 [1] | IC50 (Cytochrome P450 2C9) | Ki (Cytochrome P450 2C9)

O=c1[nH]cnc2c1ncn2[C@H]1CC[C@@H](CO)O1 [DIDANOSINE]
Not Active: IC50 (B2 bradykinin receptor) | IC50 (Glycine receptor) | IC50 [1] | IC50 (Cytochrome P450 2C9) | Ki (Cytochrome P450 2C9)

Cl.NC[C@H]1CC[C@H](C(=O)Oc2ccc(CCC(=O)O)cc2)CC1 [CETRAXATE HYDROCHLORIDE]
Not Active: IC50 (B2 bradykinin receptor) | IC50 (Glycine receptor) | IC50 [1] | IC50 (Cytochrome P450 2C9) | Ki (Cytochrome P450 2C9)

O=C(O)CCc1nc(-c2ccccc2)c(-c2ccccc2)o1 [OXAPROZIN]
Not Active: IC50 (B2 bradykinin receptor) | IC50 (Glycine receptor) | IC50 [1] | IC50 (Cytochrome P450 2C9) | Ki (Cytochrome P450 2C9)

Nc1nc(N)c2nc(CNc3ccc(C(=O)N[C@@H](CCC(=O)O)C(=O)O)cc3)cnc2n1 [AMINOPTERIN]
Not Active: IC50 (B2 bradykinin receptor) | IC50 (Glycine receptor) | IC50 [1] | IC50 (Cytochrome P450 2C9) | Ki (Cytochrome P450 2C9)

CC1(COc2ccc(CC3SC(=O)NC3=O)cc2)CCCCC1 (centres undefined) [CIGLITAZONE]
Not Active: IC50 (B2 bradykinin receptor) | IC50 (Glycine receptor) | IC50 [1] | IC50 (Cytochrome P450 2C9) | Ki (Cytochrome P450 2C9)

CCC1(c2ccccc2)C(=O)NC(=O)NC1=O [PHENOBARBITAL]
Not Active: IC50 (B2 bradykinin receptor) | IC50 (Glycine receptor) | IC50 [1] | IC50 (Cytochrome P450 2C9) | Ki (Cytochrome P450 2C9)
